Measured values from patent US20240207302A1, “ANTIVIRAL COMPOUNDS, METHODS FOR THE MANUFACTURING OF COMPOUNDS, ANTIVIRAL PHARMACEUTICAL COMPOSITION, USE OF THE COMPOUNDS AND METHOD FOR THE ORAL TREATMENT OF CORONAVIRUS INFECTION AND RELATED DISEASES THEREOF” (priority 2021, published 2024).
Read-outs that look alike come from different tables or passages of the source.

Legend:
[1] = test system: Salmonella typhimirium TA 97a, TA 98, TA 100, TA 102 and TA 1535; experiment: Bacterial reverse mutation (Ames) test
[2] = test system: mouse bone marrow polychromatic erythrocytes; experiment: Micronucleus test in mouse bone marrow; format: in vivo; settings: mice; 25 mg/Kg i.p.
Procedure: The ratio of polychromatic to normochromatic erythrocytes and the count of micronuclei were determined. This assay was conducted in compliance with the GLP principles.

SARS-COV-2 [3] = experiment: Combination with SARS-COV-2 nsp14 (exonuclease) inhibitors in Calu-3 cells, infectious virus titers; format: cell-based; settings: for effect of co-treatment with raltegravir or dolutegravir (iEXO) on inhibition of SARS-COV-2: drug 10 μM, raltegravir or dolutegravir 5 μM
SARS-COV-2 [4] = experiment: SARS-COV-2 viral RNA synthesis in Calu-3 cells (real time RT-PCR); format: cell-based; settings: 1.0 μM
SARS-COV-2 [5] = settings: for SI: CC50/EC50
[6] = Cytotoxicity assay (XTT) in Calu-3 cells; format: cell-based, human; settings: human
Procedure: (§1) In parallel, cytotoxicity assays were performed.

SARS-COV-2 [7] = experiment: SARS-COV-2 RNA loads in human primary monocytes; format: cell-based; settings: 24 h
Procedure: (§2) FIG. 5A, 5B and 5C. The compounds impair SARS-COV-2 RNA synthesis and SARS-COV-2-induced release of inflammatory mediators in human primary monocytes.
(§3) Human primary monocytes were obtained after 3 h of plastic adherence of peripheral blood mononuclear cells (PBMCs). PBMCs were isolated from healthy donors by density gradient centrifugation (Ficoll-Paque, GE Healthcare). PBMCs (2.0×10^6 cells) were plated onto 48-well plates (NalgeNunc) in RPMI-1640 without serum for 2 to 4 h. Non-adherent cells were removed, and the remaining monocytes were maintained in DMEM with 5% human serum (HS; Millipore) and penicillin/streptomycin. Monocytes were infected at MOI of 0.1. After 1 h inoculation period, cells were washed with phosphate saline buffer (PBS) to remove unbounded viruses and treated with 1 μM of the indicated compounds. After 24 h after infection, cell monolayers werc lysed total viral RNA was extracted, quantitative RT-PCR was performed, to detect the SARS-COV-2 and the housekeeping gene RNAse P.

[8] = Cytotoxicity assay (XTT) in Huh-7 cells; format: cell-based; settings: human
Procedure: In parallel, cytotoxicity assays were performed. Monolayers of 1.5×10^4 cells in 96-well plates were treated for 3 days with various concentrations (semi-log dilutions from 1,000 to 10 μM) of the antiviral drugs. Then, 5 mg/mL 2,3-bis-(2-methoxy-4-nitro-5-sulfophenyl)-2H-tetrazolium-5-carboxanilide (XTT) in DMEM was added to the cells in the presence of 0.01% of N-methyl dibenzopyrazine methyl sulfate (PMS).

SARS-COV-2 [9] = experiment: SARS-COV-2 viral RNA synthesis in Vero cells (real time RT-PCR); format: cell-based; settings: for EC50: Severe acute respiratory syndrome coronavirus 2, Vero (MOI 0.01 24 h), read-out: EC50
TNF-α and IL-6 = TNF-α and IL-6 levels in supernatant of SARS-COV-2-infected human primary monocytes; format: cell-based; settings: 24 h
Procedure: as §2, §3

Calu-3 cells = experiment: Cytotoxicity assay (XTT) in Calu-3 cells; format: cell-based, human
Procedure: as §1

SARS-COV-2 [10] = experiment: SARS-COV-2 viral RNA synthesis in HuH-7 cells (real time RT-PCR); format: cell-based; settings: for SI: Huh-7, CC50/EC50; for EC50: Severe acute respiratory syndrome coronavirus 2, Huh-7 (MOI 0.1 48 h), read-out: EC50
[11] = Cytotoxicity assay (XTT) in Vero cells; format: cell-based; settings: African green monkey
Procedure: as §1

[12] = Severe acute respiratory syndrome coronavirus 2, Calu-3, alone or in combination as labelled
[13] = Calu-3, single moment treatment
[14] = Severe acute respiratory syndrome coronavirus 2, Calu-3, 72 h, Calu-3 (MOI 0.5 72 h), daily treatment
[15] = Severe acute respiratory syndrome coronavirus 2, Calu-3, 72 h, Calu-3 (MOI 0.5 72 h), single moment treatment
[16] = Severe acute respiratory syndrome coronavirus 2, Calu-3, Table 6, Calu-3, daily treatment
[17] = Severe acute respiratory syndrome coronavirus 2, Calu-3, Table 6, Calu-3, single treatment
[18] = Table 6, Calu-3, daily treatment
[19] = Table 6, Calu-3, single treatment

SMILES: Nc1ccc2cc3ccccc3cc2c1 [2-aminoanthracene, reference compound]
- Mutagenicity ([1]; TA 102 +S9, positive control 5 μg/plate): +
- Mutagenicity ([1]; TA 1535 +S9, positive control 2.5 μg/plate): +

SMILES: O=P1(N(CCCl)CCCl)NCCCO1 (centres unmarked) [Cyclophosphamide, reference compound]
- MNPCE/4,000 PCE (Mean ± S.D.) [2]: 16.20 ± 6.03

SMILES: C[C@@H]1CCO[C@H]2Cn3cc(C(=O)NCc4ccc(F)cc4F)c(=O)c(O)c3C(=O)N12 [DTG, dolutegravir]
- EC50 (SARS-COV-2 [3]; [12]): 5.3 µM
- effect on SARS-COV-2 replication (SARS-COV-2 [3]; calu-3, 5 μM): marginal effects

SMILES: COC(=O)N[C@H](C(=O)N1CCC[C@H]1c1nc(-c2ccc(-c3ccc(-c4c[nH]c([C@@H]5CCCN5C(=O)[C@@H](NC(=O)OC)C(C)C)n4)cc3)cc2)c[nH]1)C(C)C [Daclatasvir]
- EC50 (SARS-COV-2 [3]; [12]): 0.7 µM
- EC90 (SARS-COV-2 [3]; [12]): 3.8 µM

SMILES: NC(=O)c1nc(F)c[nH]c1=O [Favipiravir]
- EC50 (SARS-COV-2 [3]; [12]): 7.8 µM

SMILES: CC(C)OC(=O)[C@H](C)NP(=O)(OC[C@H]1O[C@@H](n2cnc3c(NCc4ccco4)ncnc32)[C@H](O)[C@@H]1O)Oc1ccccc1 (some centres unmarked) [MB-711, kinetin riboside monophosphoramidate]
- inhibition of SARS-COV-2 RNA synthesis (SARS-COV-2 [4]): best profiles
- SI (SARS-COV-2 [5]; Calu-3, daily treatment): 58000 µM
- SI (SARS-COV-2 [5]; [13]): 510
- EC50 (SARS-COV-2 [5]; [14]): 0.01 µM
- EC90 (SARS-COV-2 [5]; [14]): 3.8 µM
- EC50 (SARS-COV-2 [5]; [15]): 1.1 µM
- EC90 (SARS-COV-2 [5]; [15]): 9.2 µM
- EC50 (SARS-COV-2 [5]; [16]): 0.01 µM
- EC90 (SARS-COV-2 [5]; [16]): 3.8 µM
- EC50 (SARS-COV-2 [5]; [17]): 1.1 µM
- EC90 (SARS-COV-2 [5]; [17]): 9.2 µM
- SI (SARS-COV-2 [5]; [18]): 58,000
- SI (SARS-COV-2 [5]; [19]): 510
- effect of co-treatment with raltegravir or dolutegravir (iEXO) on inhibition of SARS-COV-2 (SARS-COV-2 [3]; calu-3): synergistic
- CC50 at 3 days ([6]; Calu-3, daily treatment): 580 µM
- CC50 at 3 days [6, 13]: 562 µM
- CC50 at 3 days [6, 18]: 580 µM
- CC50 at 3 days [6, 19]: 562 µM

SMILES: OC[C@H]1O[C@@H](n2cnc3c(NCc4ccco4)ncnc32)[C@H](O)[C@@H]1O [MB-801, kinetin riboside]
- inhibition of SARS-COV-2 RNA synthesis (SARS-COV-2 [4]): best profiles
- viral RNA levels/cell (SARS-COV-2 [7]): reduced
- CC50 at 3 days [8]: 229 µM
- EC50 (SARS-COV-2 [9]): 8 µM
- SI (SARS-COV-2 [5]; Calu-3, daily treatment): 26500 µM
- SI (SARS-COV-2 [5]; [13]): 3055
- EC50 (SARS-COV-2 [5]; [14]): 0.02 µM
- EC90 (SARS-COV-2 [5]; [14]): 3.7 µM
- EC50 (SARS-COV-2 [5]; [15]): 0.18 µM
- EC90 (SARS-COV-2 [5]; [15]): 7.2 µM
- EC50 (SARS-COV-2 [5]; [16]): 0.02 µM
- EC90 (SARS-COV-2 [5]; [16]): 3.7 µM
- EC50 (SARS-COV-2 [5]; [17]): 0.18 µM
- EC90 (SARS-COV-2 [5]; [17]): 7.2 µM
- SI (SARS-COV-2 [5]; [18]): 26,500
- SI (SARS-COV-2 [5]; [19]): 3.055
- effect of co-treatment with raltegravir or dolutegravir (iEXO) on inhibition of SARS-COV-2 (SARS-COV-2 [3]; calu-3): synergistic
- SARS-CoV-2-induced enhancement of IL-6 levels in culture supernatant (TNF-α and IL-6): reduced
- SARS-CoV-2-induced enhancement of TNF-α levels in culture supernatant (TNF-α and IL-6): reduced
- CC50 at 3 days [6, 18]: 530 µM
- CC50 at 3 days [6, 19]: 550 µM
- CC50 (Calu-3 cells; Calu-3, daily treatment): 530 µM
- CC50 (Calu-3 cells; [13]): 550 µM
- SI (SARS-COV-2 [10]): 2290
- EC50 (SARS-COV-2 [10]): 0.1 µM

SMILES: C/C(=C\CNc1ncnc2c1ncn2[C@@H]1O[C@H](CO)[C@@H](O)[C@H]1O)CO [MB-804, zeatin riboside]
- viral RNA levels/cell (SARS-COV-2 [7]): reduced
- CC50 at 3 days [8]: 550 µM
- EC50 (SARS-COV-2 [9]): 1.4 µM
- SI (SARS-COV-2 [9]; Vero, CC50/EC50): 454
- SI (SARS-COV-2 [5]; [13]): 500
- EC50 (SARS-COV-2 [5]; [15]): 1.2 µM
- EC90 (SARS-COV-2 [5]; [15]): 9.1 µM
- CC50 at 3 days [11]: 636 µM
- effect of co-treatment with raltegravir or dolutegravir (iEXO) on inhibition of SARS-COV-2 (SARS-COV-2 [3]; calu-3): synergistic
- CC50 at 3 days [6, 13]: 580 µM
- SI (SARS-COV-2 [10]): 78
- EC50 (SARS-COV-2 [10]): 7.2 µM

SMILES: c1coc(CNc2ncnc3c2ncn3C2CCCCO2)c1 (centres unmarked) [MB-906]
- anti-coronavirus activity (SARS-COV-2 replication) (SARS-COV-2 [5]): not endowed with anti-coronavirus activity
- anti-coronavirus activity (SARS-COV-2 replication) (SARS-COV-2 [10]): not endowed with anti-coronavirus activity
